For this experiment, the system named is Plasmodium berghei. Nature of the experiment: Luciferase/luciferin-expressing antifolate-resistant parasites were used to infect a culture of HepG2 cells that were pre-incubated with compounds. Infected hepatocytes emit light due to the luciferase reaction. Assay results are presented as the percent inhibition of light emission compared to control. […]. The experiment is classed as functional. As to conditions: sporozoite; for IC90: read-out: LUCIFERASE INFECTION ASSAY - IC90.

pIC50: −log10 of the molar value.

As to `Cc1nn2c(=O)cc(-c3ccccc3)[nH]c2c1-c1ccc(F)cc1`, the 90% effect concentration (IC90) amounted to 1.16 µM. Moreover, the pIC50 (HEPG2TOX_HILL_SLOPE 1.12, HEPG2TOX_R_SQUARED 0.564, PBLUC_HILL_SLOPE 22.2, PBLUC_R_SQUARED 0.649, read-out: LUCIFERASE INFECTION ASSAY - IC50) is 5.98.

For the molecule `C/C(=N\NC(N)=S)c1ccccn1`, the IC90 turned out to be 2.4 µM. The pIC50 (HEPG2TOX_HILL_SLOPE 1.14, HEPG2TOX_R_SQUARED 0.913, PBLUC_HILL_SLOPE 1.97, PBLUC_R_SQUARED 0.843, read-out: LUCIFERASE INFECTION ASSAY - IC50) was 6.10.

As for `Cc1ccc2c(Cl)cc(Cl)c(OCC(=O)c3c[nH]c(C(=O)N4CCCC4)c3)c2n1`, the IC90 is 8.53 µM. The negative-log IC50 (pIC50) (HEPG2TOX_HILL_SLOPE 1.13, HEPG2TOX_R_SQUARED 0.949, PBLUC_HILL_SLOPE 1.15, PBLUC_R_SQUARED 0.754, read-out: LUCIFERASE INFECTION ASSAY - IC50) was 5.90.

For `CCCCc1noc(C(C)Sc2nc(C(C)(C)C)nc3c2c(=O)n(C)c(=O)n3C)n1` (stereo not drawn), the concentration for an effect of 90% (IC90) is greater than 10 µM. Besides, the pIC50 (HEPG2TOX_HILL_SLOPE 1.13, HEPG2TOX_R_SQUARED 0.608, PBLUC_HILL_SLOPE 1.15, PBLUC_R_SQUARED 0.641, read-out: LUCIFERASE INFECTION ASSAY - IC50) was 5.41.

In the case of `COc1ccc2ccccc2c1/C=N/Nc1ncc(C(F)(F)F)cc1Cl`, the IC90 was greater than 10 µM. Also, for the setting “HEPG2TOX_HILL_SLOPE 1.11, HEPG2TOX_R_SQUARED 0.987, read-out: LUCIFERASE INFECTION ASSAY - IC50”, the pIC50 was less than 5.00.

As to `CC(=O)c1cccc(-c2cnc3ccc(Cc4ccccc4)nn23)c1`, the concentration for an effect of 90% (IC90) is 8.78 µM. Besides, for the setting “HEPG2TOX_HILL_SLOPE 1.13, HEPG2TOX_R_SQUARED 0.363, PBLUC_HILL_SLOPE 4.01, PBLUC_R_SQUARED 0.469, read-out: LUCIFERASE INFECTION ASSAY - IC50”, the pIC50 is 5.29.

For `COc1ccc2cc(/C(C)=N/OC(=O)Nc3ccccc3)ccc2c1`, the IC90 is greater than 9.87 µM. Moreover, the pIC50 (HEPG2TOX_HILL_SLOPE 1.11, HEPG2TOX_R_SQUARED 0.992, read-out: LUCIFERASE INFECTION ASSAY - IC50) is less than 5.01.

In the case of `CCOc1ccc(/C=C/c2ccc3c(Cl)cc(Cl)c(O)c3n2)cc1OC`, the IC90 is greater than 10 µM. For the setting “HEPG2TOX_HILL_SLOPE 1.14, HEPG2TOX_R_SQUARED 0.782, PBLUC_HILL_SLOPE 2.47, PBLUC_R_SQUARED 0.699, read-out: LUCIFERASE INFECTION ASSAY - IC50”, the pIC50 is 5.34.

On to `O=C(C1=NNCC1c1ccccc1)c1ccc2ccccc2c1` (stereo not drawn), for which the IC90 was greater than 11 µM. Besides, the pIC50 (HEPG2TOX_HILL_SLOPE 1.14, HEPG2TOX_R_SQUARED 0.985, PBLUC_HILL_SLOPE 1.79, PBLUC_R_SQUARED 0.146, read-out: LUCIFERASE INFECTION ASSAY - IC50) was 5.28.

Regarding `CCOC(=O)C1=C(CSc2nc3ccccc3c(=O)n2-c2ccc(OC(F)F)cc2)NC(=O)NC1C` (stereo not drawn), the IC90 is greater than 10 µM. Further, the pIC50 (HEPG2TOX_HILL_SLOPE 1.17, HEPG2TOX_R_SQUARED 0.429, PBLUC_HILL_SLOPE 8.23, PBLUC_R_SQUARED 0.327, read-out: LUCIFERASE INFECTION ASSAY - IC50) was 5.08.

On to `CN(C1CCCCC1)S(=O)(=O)c1cccc(C(=O)Nc2ccc(S(=O)(=O)NCc3ccco3)cc2)c1`, for which the IC90 was found to be 1.72 µM. Moreover, the pIC50 (HEPG2TOX_HILL_SLOPE 1.16, HEPG2TOX_R_SQUARED 0.836, PBLUC_HILL_SLOPE 2.1, PBLUC_R_SQUARED 0.409, read-out: LUCIFERASE INFECTION ASSAY - IC50) is 6.22.

As for `Brc1ccc(-c2csc3ncnc(NCc4ccc(-n5ccnc5)nc4)c23)cc1`, the IC90 is greater than 10 µM. Under “HEPG2TOX_HILL_SLOPE 1.16, HEPG2TOX_R_SQUARED 0.868, read-out: LUCIFERASE INFECTION ASSAY - IC50”, the negative-log IC50 (pIC50) is less than 5.00.

For the molecule `Cc1ccc2nc(NC(=O)c3cc(F)c(F)cc3F)c(C(=O)NC3CCCC3)n2c1`, the 90% effect concentration (IC90) worked out at 2.75 µM. Also, the pIC50 (HEPG2TOX_HILL_SLOPE 1.15, HEPG2TOX_R_SQUARED 0.906, PBLUC_HILL_SLOPE 3.53, PBLUC_R_SQUARED 0.394, read-out: LUCIFERASE INFECTION ASSAY - IC50) was 5.83.

In the case of `COc1ccc(-c2cc(-c3cccc(NS(C)(=O)=O)c3)cnc2N)c(OC)c1`, the IC90 was determined as 4.29 µM. Besides, where the note is “HEPG2TOX_HILL_SLOPE 1.15, HEPG2TOX_R_SQUARED 0.874, PBLUC_HILL_SLOPE 1.81, PBLUC_R_SQUARED 0.713, read-out: LUCIFERASE INFECTION ASSAY - IC50”, the pIC50 is 5.90.

In the case of `C=CCN(c1ccc(C(=O)Nc2ccc(C(F)(F)F)cc2)cc1)S(C)(=O)=O`, the concentration for an effect of 90% (IC90) was found to be 7.12 µM. For the same molecule, the pIC50 (HEPG2TOX_HILL_SLOPE 1.13, HEPG2TOX_R_SQUARED 0.916, PBLUC_HILL_SLOPE 2.09, PBLUC_R_SQUARED 0.336, read-out: LUCIFERASE INFECTION ASSAY - IC50) was 5.60.

As to `N#Cc1ccc(Cc2cnc(NC(=O)c3ccc4ncsc4c3)s2)cc1`, the IC90 came to 1.82 µM. Moreover, the pIC50 (HEPG2TOX_HILL_SLOPE 1.13, HEPG2TOX_R_SQUARED 0.797, PBLUC_HILL_SLOPE 1.77, PBLUC_R_SQUARED 0.567, read-out: LUCIFERASE INFECTION ASSAY - IC50) is 6.28.

Consider `ONC(=NC(=S)Nc1cc(Cl)ccc1Cl)c1ccccn1`, for which the IC90 worked out at 9.52 µM. Where the note is “HEPG2TOX_HILL_SLOPE 1.13, HEPG2TOX_R_SQUARED 0.776, PBLUC_HILL_SLOPE 15.8, PBLUC_R_SQUARED 0.357, read-out: LUCIFERASE INFECTION ASSAY - IC50”, the pIC50 was 5.08.

Regarding `c1ccc(Oc2cccc(Nc3nccc4nc(-c5ccccc5)[nH]c34)c2)cc1`, the IC90 was determined as 3.51 µM. Under “HEPG2TOX_HILL_SLOPE 1.11, HEPG2TOX_R_SQUARED 0.909, PBLUC_HILL_SLOPE 45.8, PBLUC_R_SQUARED 0.688, read-out: LUCIFERASE INFECTION ASSAY - IC50”, the negative logarithm of the IC50 (pIC50) was 5.48.

As for `CNc1snc(C)c1C(=O)NCc1ccc(COCC(F)(F)F)cc1`, the IC90 came out at 1.72 µM. Also, for the setting “HEPG2TOX_HILL_SLOPE 1.16, HEPG2TOX_R_SQUARED 0.865, PBLUC_HILL_SLOPE 3.24, 27.9, PBLUC_R_SQUARED 0.892, 0.904, read-out: LUCIFERASE INFECTION ASSAY - IC50”, the pIC50 was 5.95.

`CCCNC(=O)c1c(NC(=O)c2ccccc2)nc2ccc(C)cn12`: the IC90 was 7.77 µM. For the same molecule, where the note is “HEPG2TOX_HILL_SLOPE 1.15, HEPG2TOX_R_SQUARED 0.736, PBLUC_HILL_SLOPE 3.57, PBLUC_R_SQUARED 0.289, read-out: LUCIFERASE INFECTION ASSAY - IC50”, the negative logarithm of the IC50 (pIC50) was 5.38.

On to `Cc1ccc(NC(=O)NC(=O)c2c(-c3snnc3C)noc2C)cc1`, for which the IC90 is greater than 9.23 µM. Under “HEPG2TOX_HILL_SLOPE 1.11, HEPG2TOX_R_SQUARED 0.954, PBLUC_HILL_SLOPE 1.54, PBLUC_R_SQUARED 0.355, read-out: LUCIFERASE INFECTION ASSAY - IC50”, the negative-log IC50 (pIC50) was 5.60.

As to `CC(C)(C)NC(=S)N/N=C/c1cc(Cl)cc(Cl)c1O`, the IC90 came out at 6.66 µM. Further, the pIC50 (HEPG2TOX_HILL_SLOPE 1.14, HEPG2TOX_R_SQUARED 0.984, PBLUC_HILL_SLOPE 2.14, PBLUC_R_SQUARED 0.291, read-out: LUCIFERASE INFECTION ASSAY - IC50) was 5.62.

As for `CCOc1cc2ccccc2cc1C(=O)NNC(=O)c1ccccn1`, the IC90 stood at 1.23 µM. Moreover, the pIC50 (HEPG2TOX_HILL_SLOPE 1.13, 0.817, HEPG2TOX_R_SQUARED 0.858, 0.909, PBLUC_HILL_SLOPE 4.86, PBLUC_R_SQUARED 0.852, read-out: LUCIFERASE INFECTION ASSAY - IC50) was 6.11.

Regarding `COc1cc(-c2nccc3n[nH]c(C)c23)cc(OC)c1OC`, the IC90 is greater than 10 µM. Moreover, the negative logarithm of the IC50 (pIC50) (HEPG2TOX_HILL_SLOPE 1.13, HEPG2TOX_R_SQUARED 0.879, read-out: LUCIFERASE INFECTION ASSAY - IC50) is less than 5.00.

Turning to `O=C1C(=C2NC=C(c3ccc(Cl)cc3)O2)Sc2ncccc21`, the IC90 came out at 1.69 µM. Under “HEPG2TOX_HILL_SLOPE 1.16, HEPG2TOX_R_SQUARED 0.581, PBLUC_HILL_SLOPE 117, PBLUC_R_SQUARED 0.316, read-out: LUCIFERASE INFECTION ASSAY - IC50”, the pIC50 was 5.78.

As to `O=C(Nc1nc2ccccn2c1C(=O)NC1CCCCC1)c1cc(F)ccc1F`, the IC90 is 2.12 µM. The pIC50 (HEPG2TOX_HILL_SLOPE 1.14, HEPG2TOX_R_SQUARED 0.869, PBLUC_HILL_SLOPE 2.93, PBLUC_R_SQUARED 0.682, read-out: LUCIFERASE INFECTION ASSAY - IC50) was 6.00.

In the case of `CCc1sc(C(=O)Nc2cnc3ccccc3c2)cc1C`, the IC90 was greater than 10 µM. Where the note is “HEPG2TOX_HILL_SLOPE 1.13, HEPG2TOX_R_SQUARED 0.365, PBLUC_HILL_SLOPE 0.275, PBLUC_R_SQUARED 0.613, read-out: LUCIFERASE INFECTION ASSAY - IC50”, the pIC50 is 6.34.

On to `CC(=O)c1cccc(-c2cnc3ccc(-c4cncnc4)nn23)c1`, for which the concentration for an effect of 90% (IC90) is 3.69 µM. For the same molecule, for the setting “HEPG2TOX_HILL_SLOPE 1.11, HEPG2TOX_R_SQUARED 0.828, PBLUC_HILL_SLOPE 6.15, PBLUC_R_SQUARED 0.481, read-out: LUCIFERASE INFECTION ASSAY - IC50”, the pIC50 is 5.59.

On to `Cn1c(CC(=O)NNC(=O)c2ccccc2Nc2ccccc2)nc2ccccc21`, for which the IC90 was found to be 3.3 µM. Also, the pIC50 (HEPG2TOX_HILL_SLOPE 1.15, HEPG2TOX_R_SQUARED 0.894, PBLUC_HILL_SLOPE 16.3, PBLUC_R_SQUARED 0.746, read-out: LUCIFERASE INFECTION ASSAY - IC50) is 5.54.

(Values after ChEMBL document CHEMBL4483862, “Open-source discovery of chemical leads for next-generation chemoprotective antimalarials” (2018).)
